According to US11261201B2 (priority 2018, dated 2022):
Converted amounts (≈) assume the structure as drawn. Structures can show the parent of a compound that is named as a salt. Where two headings read alike, the source gives them in different places.

Legend:
E. coli = experiment: Gram negative MIC protocol (OD600, LB, 24 h); settings: Escherichia coli
Experimental: (§1) Overnight bacterial cultures were grown in LB with no added antibiotics at 37° C. with shaking. A 1:1000 dilution of these cultures into LB was exposed to concentration gradients of compounds in 96-well plates (100 μL per well assay volume). Resulting plates were incubated at 37° C. for 24 h without shaking, and OD600 was measured at the end of the incubation. MICs were determined as the lowest concentrations at which OD600 remained at baseline.

A. baumannii = experiment: Gram negative MIC protocol (OD600, LB, 24 h); settings: Acinetobacter baumannii
Experimental: as §1

H37RvMA = experiment: Tuberculosis Alamar Blue/Resazurin assay (MIC); type: cell-based; settings: Mycobacterium tuberculosis, H37RV, read-out: WT H37Rv MTB Activity
[1] = read-out: MIC E. coli delta-TolC LB Media, E. coli delta-TolC, LB media, OD600
[2] = read-out: MIC WT E. coli LB Media, WT E. coli, LB media, OD600
[3] = read-out: MIC A. baumannii LB Media, A. baumannii, LB media, 24 h, OD600
[4] = read-out: MIC E. coli delta-TolC LB Media, E. coli delta-TolC strain, LB media, 24 h, OD600
[5] = read-out: MIC WT E. coli LB Media, wild-type E. coli, LB media, 24 h, OD600
[6] = read-out: MIC A. baumannii LB Media

| SMILES | MIC (E. coli; [1]) | MIC (E. coli; [2]) | MIC (A. baumannii; [3]) | MIC (H37RvMA; WT H37Rv MTB) | MIC (E. coli; [4]) | MIC (E. coli; [5]) | MIC (A. baumannii; [6]) | MIC (H37RvMA) |
| --- | --- | --- | --- | --- | --- | --- | --- | --- |
| CC(CC1CCCCC1)NCc1cccc2ccn(CCO)c12 (stereo not shown) [B442, 2-(7-(((1-cyclohexylpropan-2-yl)amino)methyl)-1H-indol-1-yl)ethan-1-ol hydrochloride] | 150 µM | > 150 µM | > 150 µM | 150 µM |  |  |  |  |
| CC(CC1CCCCC1)NCc1ccccc1OCc1nc(C(C)C)no1 (stereo not shown) [B323] |  |  | > 150 µM | 150 µM (≈ 55.7 µg/mL) | 4 µM (≈ 1.49 µg/mL) | > 150 µM |  |  |
| c1ccc(CNCCC2CCCCCC2)cc1 [B102] | 90 µM (≈ 20.8 µg/mL) | 120 µM (≈ 27.8 µg/mL) | 150 µM (≈ 34.7 µg/mL) | 91 µM (≈ 21.1 µg/mL) |  |  |  |  |
| c1ccc(CNCCN2CCc3sccc3C2)cc1 [B140] | > 150 µM | > 150 µM | > 150 µM | > 150 µM |  |  |  |  |
| CC(CC1CCCCC1)NCc1ccccc1CS(=O)(=O)N(C)C[C@H](O)CO (stereo partly drawn) [B438, 1-(2-(((1-cyclohexylpropan-2-yl)amino)methyl)phenyl)-N-((S)-2,3-dihydroxypropyl)-N-methylmethanesulfonamide] | 7 µM (≈ 2.89 µg/mL) | 150 µM (≈ 61.9 µg/mL) | > 150 µM | > 150 µM |  |  |  |  |
| CC(CC1CCCCC1)NCc1ccccc1OC(F)F (stereo not shown) [B291] |  |  | > 150 µM | > 150 µM | 12 µM (≈ 3.57 µg/mL) | 91 µM (≈ 27.1 µg/mL) |  |  |
| CCN1CC(COc2ccccc2CNCCC2=CCCCC2)OC1=O (stereo not shown) [B368] |  |  | > 150 µM | > 150 µM | 20 µM (≈ 7.17 µg/mL) | > 150 µM |  |  |
| NS(=O)(=O)c1ccccc1CNCCC1CCCCC1 [B345] |  |  | 33 µM (≈ 9.78 µg/mL) | > 150 µM | 20 µM (≈ 5.93 µg/mL) | > 150 µM |  |  |
| CC(CC1CCCCC1)NCc1ccccc1OCC(=O)NC(N)=O (stereo not shown) [B335] |  |  | 150 µM (≈ 52.1 µg/mL) | > 150 µM | 4 µM (≈ 1.39 µg/mL) | 55 µM (≈ 19.1 µg/mL) |  |  |
| CC(CC1CCCCC1)NCc1ccccc1NC(=O)c1ccccc1F (stereo not shown) [B398, N-(2-(((1-cyclohexylpropan-2-yl)amino)methyl)phenyl)-2-fluorobenzamide hydrochloride] | 91 µM | > 150 µM | > 150 µM | 150 µM |  |  |  |  |
| CNc1cccc(CNCCC2CCCCC2)c1 [B406, 3-(((2-cyclohexylethyl)amino)methyl)-N-methylaniline] | > 150 µM | > 150 µM | > 150 µM | 150 µM (≈ 37 µg/mL) |  |  |  |  |
| c1ccc(OCC2CCOC2)c(CNCCC2CCCCC2)c1 (stereo not shown) [B330, 2-cyclohexyl-N-(2-((tetrahydrofuran-3-yl)methoxy)benzyl)ethanamine] |  |  | > 150 µM | > 150 µM | 33 µM (≈ 10.5 µg/mL) | > 150 µM |  |  |
| CC(CC1CCCCC1)NCc1ccccc1OCCOC(C)(C)C (stereo not shown) [B307] |  |  | > 150 µM | 150 µM (≈ 52.1 µg/mL) | 20 µM (≈ 6.95 µg/mL) | > 150 µM |  |  |
| COCCNS(=O)(=O)Cc1ccccc1CNC(C)CC1CCCCC1 (stereo not shown) [B434, 1-(2-(((1-cyclohexylpropan-2-yl)amino)methyl)phenyl)-N-(2-methoxyethyl) methanesulfonamide] | 4 µM (≈ 1.53 µg/mL) | 150 µM (≈ 57.4 µg/mL) | 150 µM (≈ 57.4 µg/mL) | > 150 µM |  |  |  |  |
| CC(CC1CCCCC1)NCc1ccccc1OCC(=O)NC(=O)NC1CCCC1 (stereo not shown) [B317] |  |  | 91 µM (≈ 37.8 µg/mL) | 55 µM (≈ 22.9 µg/mL) | 3 µM (≈ 1.25 µg/mL) | 91 µM (≈ 37.8 µg/mL) |  |  |
| CC(CC1CCCCC1)NCc1ccccc1OCC1CCCO1 (stereo not shown) [B297] |  |  | 150 µM (≈ 49.7 µg/mL) | > 150 µM | 7 µM (≈ 2.32 µg/mL) | > 150 µM |  |  |
| O=C1OC(COc2ccccc2CNCCC2=CCCCC2)CN1C1CC1 (stereo not shown) [B370] |  |  | > 150 µM | > 150 µM | 12 µM (≈ 4.45 µg/mL) | > 150 µM |  |  |
| Cc1ccc(CNC2CCCCC2)cc1 [B137] | > 150 µM | > 150 µM | > 150 µM | > 150 µM |  |  |  |  |
| c1ccc(CCNCc2ccccc2)cc1 [B181] | > 300 µM | > 300 µM |  |  |  |  | > 300 µM | > 150 µM |
| CCC(CC1CCCCC1)NCc1ccccc1 (stereo not shown) [B164, N-benzyl-1-cyclohexylbutan-2-amine] | 60 µM (≈ 14.7 µg/mL) | > 300 µM | > 150 µM | > 150 µM |  |  |  |  |
| Cc1nc(COc2ccccc2CNC(C)CC2CCCCC2)oc1C (stereo not shown) [B246] |  |  | > 150 µM | 91 µM (≈ 32.4 µg/mL) | 12 µM (≈ 4.28 µg/mL) | > 150 µM |  |  |
| CC(CC1CCCCC1)NCc1ccccc1CCS(N)(=O)=O (stereo not shown) [B451, 2-(2-(((1-cyclohexylpropan-2-yl)amino)methyl)phenyl)ethane-1-sulfonamide] | 4 µM (≈ 1.35 µg/mL) | 55 µM (≈ 18.6 µg/mL) | 150 µM (≈ 50.8 µg/mL) | > 150 µM |  |  |  |  |
| c1ccc(CNCCC2CCNCC2)cc1 [B215, N-benzyl-2-(piperidin-4-yl)ethanamine hydrochloride] |  |  | > 300 µM | > 150 µM | > 300 µM | > 300 µM |  |  |
| c1ccc(CNCC2CCc3ccccc32)cc1 (stereo not shown) [B213, N-benzyl-1-(2,3-dihydro-1H-inden-1-yl)methanamine hydrochloride] |  |  | > 300 µM | > 150 µM | > 300 µM | > 300 µM |  |  |
| CNC(=O)COc1ccccc1CNC(C)CC1CCCCC1 (stereo not shown) [B243] |  |  | > 150 µM | > 150 µM | 12 µM (≈ 3.82 µg/mL) | > 150 µM |  |  |

| SMILES | MIC (E. coli; [1]) | MIC (E. coli; [2]) | MIC (A. baumannii; [3]) | MIC (H37RvMA; WT H37Rv MTB) | MIC (E. coli; [4]) | MIC (E. coli; [5]) | MIC (A. baumannii; [6]) | MIC (H37RvMA) |
| --- | --- | --- | --- | --- | --- | --- | --- | --- |
| C[C@@H](Cc1ccccc1)NCc1ccccc1 [B217] |  |  |  |  | > 300 µM | > 300 µM | > 300 µM | > 150 µM |
| CN1CC2CCC1C(CNCc1ccccc1)C2 (stereo not shown) [B116] | > 150 µM | > 150 µM | > 150 µM |  |  |  |  | > 150 µM |
| CC(CC1CC=CCC1)NCc1ccccc1 (stereo not shown) [B157, N-benzyl-1-(cyclohex-3-enyl)propan-2-amine] | 11 µM (≈ 2.52 µg/mL) | 20 µM (≈ 4.59 µg/mL) |  |  |  |  | 55 µM (≈ 12.6 µg/mL) | 91 µM (≈ 20.9 µg/mL) |
| OC[C@H](Cc1ccccc1)NCc1ccccc1 [B174] | > 300 µM | > 300 µM | > 300 µM | > 150 µM |  |  |  |  |
| FC(F)(F)C(CC1CCCCC1)NCc1ccccc1 (stereo not shown) [B177] | > 300 µM | > 300 µM | > 300 µM | > 150 µM |  |  |  |  |
| CC(CC1CCCCC1)NCc1ccccc1CS(=O)(=O)NCC(O)CO (stereo not shown) [B431, 1-(2-(((1-cyclohexylpropan-2-yl)amino)methyl)phenyl)-N-(2,3-dihydroxypropyl) methanesulfonamide] | 4 µM (≈ 1.59 µg/mL) | 150 µM (≈ 59.8 µg/mL) | > 150 µM | > 150 µM |  |  |  |  |
| COc1ccc2c(c1)CCCC2CNCc1ccccc1 (stereo not shown) [B112] | > 150 µM | > 150 µM | > 150 µM | > 150 µM |  |  |  |  |
| CC1CCCC(Oc2ccccc2CNC(C)CC2CCCCC2)C1 (stereo not shown) [B391, 1-cyclohexyl-N-(2-((3-methylcyclohexyl)oxy)benzyl)propan-2-amine] |  |  | 91 µM (≈ 31.3 µg/mL) | 20.2 µM (≈ 6.94 µg/mL) | 3 µM (≈ 1.03 µg/mL) | 150 µM (≈ 51.5 µg/mL) |  |  |
| C[C@@H](CC1CCCCC1)NCc1ccccc1 [B94] | 7 µM (≈ 1.62 µg/mL) | 17 µM (≈ 3.93 µg/mL) |  |  |  |  | 91 µM (≈ 21.1 µg/mL) | > 150 µM |
| CC(CC1CCCCC1)NCc1cccc2ccn(C)c12 (stereo not shown) [B441, 1-cyclohexyl-N-((1-methyl-1H-indol-7-yl)methyl)propan-2-amine hydrochloride] | 91 µM | > 150 µM | > 150 µM | 33.4 µM |  |  |  |  |
| CC(CC1CCCCC1)NCc1ccccc1OCCO (stereo not shown) [B337] |  |  | 150 µM (≈ 43.7 µg/mL) | > 150 µM | 4 µM (≈ 1.17 µg/mL) | 55 µM (≈ 16 µg/mL) |  |  |
| CC(C)(CNCc1ccccc1)C1=CCCC1 [B74] | > 150 µM | > 150 µM | > 150 µM | > 150 µM |  |  |  |  |
| O=C(O)C1CCCCC1CCNCc1ccccc1 (stereo not shown) [B184] | > 300 µM | > 300 µM | > 300 µM | > 150 µM |  |  |  |  |
| CCSCCOc1ccccc1CNC(C)CC1CCCCC1 (stereo not shown) [B314] |  |  | 91 µM (≈ 30.5 µg/mL) | 150 µM (≈ 50.3 µg/mL) | 4 µM (≈ 1.34 µg/mL) | 150 µM (≈ 50.3 µg/mL) |  |  |
| CC(CC1CCCCC1)NCc1ccccc1SCC1CN(C)C(=O)O1 (stereo not shown) [B407, 5-(((2-(((1-cyclohexylpropan-2-yl)amino)methyl)phenyl)thio)methyl)-3-methyl oxazolidin-2-one] | 7 µM (≈ 2.64 µg/mL) | 150 µM (≈ 56.5 µg/mL) | > 150 µM | > 150 µM |  |  |  |  |
| CC(NCc1ccccc1)C1Cc2ccccc21 (stereo not shown) [B110] | > 150 µM | > 150 µM | > 150 µM | > 150 µM |  |  |  |  |
| COC(=O)c1ccccc1CNCCC1CCCCC1 [B258, methyl 2-((2-cyclohexylethylamino)methyl)benzoate hydrochloride] |  |  | > 150 µM | > 150 µM | 100 µM | > 150 µM |  |  |
| Fc1cc(CCNCc2ccccc2)c2c(c1)COCO2 [B21] | > 150 µM | > 150 µM | > 150 µM | > 150 µM |  |  |  |  |
| CC(CC1CCCCC1)NCc1ccccc1OCC(C)(C)O (stereo not shown) [B343] |  |  | 150 µM (≈ 47.9 µg/mL) | > 150 µM | 4 µM (≈ 1.28 µg/mL) | 150 µM (≈ 47.9 µg/mL) |  |  |
| Cc1nc(COc2ccccc2CNC(C)CC2CCCCC2)no1 (stereo not shown) [B334] |  |  | > 150 µM | > 150 µM | 7 µM (≈ 2.4 µg/mL) | > 150 µM |  |  |
| NCc1ccccc1CNCCC1CCCCC1 [B254, N-(2-(aminomethyl)benzyl)-2-cyclohexylethanamine hydrochloride] |  |  | > 150 µM | > 150 µM | > 150 µM | > 150 µM |  |  |
| CC1(CNCc2ccccc2)CCCCCC1 [B100] | > 150 µM | > 150 µM | > 150 µM | > 150 µM |  |  |  |  |
| OC[C@@H](Cc1ccccc1)NCc1ccccc1 [B173] | > 300 µM | > 300 µM | > 300 µM | > 150 µM |  |  |  |  |
| CC(Cc1cnn(C)c1)NCc1ccccc1 (stereo not shown) [B41] | > 150 µM | > 150 µM | > 150 µM |  |  |  |  | > 150 µM |
